Measurements taken from ChEMBL document CHEMBL1201862, “PubChem BioAssay data set” (2004).
Active and inactive are the calls of the source.

Legend:
[1] = tested on: P388; assay: cells; assay type: functional; details: Mus musculus
[2] = tested on: P388/ADR; assay: cells; assay type: functional; details: Mus musculus
[3] = tested on: SN12K1; assay: cells; assay type: functional; details: Homo sapiens
[4] = Shn3 3'UTR reporter inhibitors, dose response, cell-based, Clone20 osteoblasts, firefly luciferase, cherry-picked (AID 624132); assay type: functional;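 further: firefly luciferase luminescence from reporter carrying the Shn3 3'UTR in osteoblasts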
[5] = HepG2 cell cytotoxicity, dose response, cytotoxicity control for Shn3 inhibitor project, CellTiter-Glo, cherry-picked (AID 624134); assay type: functional, cell-based
[6] = control 3'UTR Renilla luciferase suppression, dose response, counter-screen for Shn3 inhibitor project, cell-based, Clone20-Shn3RL, cherry-picked (AID 624133); assay type: functional
[7] = target: T1, High affinity choline transporter 1 (Homo sapiens, UniProt Q9GZV3); assay: CHT inhibitors, dose response, cell-based, 5-point CRC, membrane potential dye (AID 504840); assay type: functional
T1 sequence (Q9GZV3 whole entry): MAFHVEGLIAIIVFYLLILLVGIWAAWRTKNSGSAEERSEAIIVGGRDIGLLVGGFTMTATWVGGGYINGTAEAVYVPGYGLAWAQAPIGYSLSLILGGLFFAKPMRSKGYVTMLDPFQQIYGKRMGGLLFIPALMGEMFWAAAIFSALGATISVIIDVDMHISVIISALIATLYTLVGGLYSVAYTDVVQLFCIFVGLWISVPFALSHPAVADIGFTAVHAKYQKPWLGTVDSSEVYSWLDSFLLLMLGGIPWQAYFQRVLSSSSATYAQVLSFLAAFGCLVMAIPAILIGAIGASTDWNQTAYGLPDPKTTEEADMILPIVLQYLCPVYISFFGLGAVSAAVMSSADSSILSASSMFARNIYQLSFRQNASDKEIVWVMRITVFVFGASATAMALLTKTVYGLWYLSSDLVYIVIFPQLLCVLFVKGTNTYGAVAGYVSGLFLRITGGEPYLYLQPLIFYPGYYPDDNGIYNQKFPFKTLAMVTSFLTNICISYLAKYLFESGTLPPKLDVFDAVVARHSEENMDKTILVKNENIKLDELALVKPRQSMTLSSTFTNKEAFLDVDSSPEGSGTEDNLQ

[8] = target: FAD-linked sulfhydryl oxidase ALR (Homo sapiens, UniProt P55789); assay: inhibitors of human ALR sulfhydryl oxidase, dose response, biochemical, H2O2 detection, luminescence, cherry-pick (AID 493248)
Sequence of FAD-linked sulfhydryl oxidase ALR (P55789 whole entry): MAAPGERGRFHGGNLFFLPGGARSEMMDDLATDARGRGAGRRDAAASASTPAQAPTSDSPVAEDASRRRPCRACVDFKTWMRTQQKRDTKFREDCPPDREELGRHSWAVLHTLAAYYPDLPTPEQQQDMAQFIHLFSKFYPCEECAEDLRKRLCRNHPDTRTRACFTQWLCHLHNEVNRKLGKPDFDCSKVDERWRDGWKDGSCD

[9] = tested on: INS1; assay: beta cell apoptosis inhibitors, cytokine rescue, dose response, luminescence, retest (AID 449756); assay type: functional, cell-based; details: Rattus norvegicus;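 further: cell death triggered by IL-1 beta plus TNF-alpha plus IFN-gamma mixture; protective hits raise ATP signal compared with cytokine alone wells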
[10] = microbe, parasite or virus in culture; assay type: functional; details: Mycobacterium tuberculosis
[11] = target: T2, Ubiquitin-conjugating enzyme E2 N (Homo sapiens, UniProt P61088); assay type: functional;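 further: Dose-response confirmation in a TR-FRET assay detecting UBC13-driven polyubiquitin chain formation, inhibition measured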
T2 sequence (P61088 whole entry): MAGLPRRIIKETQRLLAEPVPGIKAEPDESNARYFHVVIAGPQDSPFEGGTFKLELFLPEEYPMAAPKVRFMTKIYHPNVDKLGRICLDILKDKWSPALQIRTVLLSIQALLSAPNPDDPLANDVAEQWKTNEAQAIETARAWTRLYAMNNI

[12] = target: T3, Corticotropin-releasing factor receptor 2/Corticotropin-releasing factor-binding protein (Homo sapiens, UniProt P24387+Q13324); assay: activators of CRF receptor 2 with binding protein – uHTS hits, confirmation (AID 602473); assay type: functional; details: read-out: EC50_Mean
T3 sequence (Q13324 whole entry): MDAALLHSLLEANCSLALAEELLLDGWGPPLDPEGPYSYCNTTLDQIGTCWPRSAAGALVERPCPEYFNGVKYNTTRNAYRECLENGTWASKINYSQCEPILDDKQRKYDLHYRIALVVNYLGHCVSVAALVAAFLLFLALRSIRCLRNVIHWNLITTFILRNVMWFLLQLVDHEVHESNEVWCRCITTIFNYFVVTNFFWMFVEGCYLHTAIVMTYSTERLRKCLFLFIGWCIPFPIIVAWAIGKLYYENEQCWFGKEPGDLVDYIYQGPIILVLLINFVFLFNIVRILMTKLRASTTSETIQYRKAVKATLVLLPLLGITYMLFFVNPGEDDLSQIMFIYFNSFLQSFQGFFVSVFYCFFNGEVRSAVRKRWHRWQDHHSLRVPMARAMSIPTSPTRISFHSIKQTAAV
T3 sequence (P24387 whole entry): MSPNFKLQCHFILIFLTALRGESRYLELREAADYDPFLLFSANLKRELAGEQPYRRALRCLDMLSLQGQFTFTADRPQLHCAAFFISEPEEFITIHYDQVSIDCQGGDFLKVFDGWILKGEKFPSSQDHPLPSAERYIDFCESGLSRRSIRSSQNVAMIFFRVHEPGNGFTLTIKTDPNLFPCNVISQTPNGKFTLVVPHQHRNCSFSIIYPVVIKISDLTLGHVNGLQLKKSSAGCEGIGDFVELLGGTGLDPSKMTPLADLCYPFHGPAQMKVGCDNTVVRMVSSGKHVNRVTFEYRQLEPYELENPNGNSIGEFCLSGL

[13] = target: T4, Calpain-2 catalytic subunit (Sus scrofa, UniProt P43367); assay: pig calpain II inhibitor potency, dose response, biochemical, fluorogenic peptide substrate (AID 1420); assay type: functional
T4 sequence (P43367 whole entry): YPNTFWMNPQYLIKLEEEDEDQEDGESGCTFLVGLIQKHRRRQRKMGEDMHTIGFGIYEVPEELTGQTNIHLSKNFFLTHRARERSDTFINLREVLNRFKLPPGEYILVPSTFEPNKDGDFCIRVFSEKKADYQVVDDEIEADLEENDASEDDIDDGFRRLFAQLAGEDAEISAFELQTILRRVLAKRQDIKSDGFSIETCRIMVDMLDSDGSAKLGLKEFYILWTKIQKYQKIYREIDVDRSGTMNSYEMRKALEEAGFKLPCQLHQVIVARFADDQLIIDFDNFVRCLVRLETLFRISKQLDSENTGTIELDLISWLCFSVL

[14] = inhibitors of intracellular T. cruzi replication, confirmation, NIH3T3 host cells, beta-gal luminescence (AID 2044); assay type: functional, cell-based;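 further: intracellular parasites grown in NIH/3T3 mouse fibroblasts as host cells; luminescent beta-galactosidase reporter signal from transgenic T. cruzi replicating inside host cells; inhibitors lower the luminescence signal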
[15] = tested on: Streptococcus; assay: Group A Streptococcus viability loss, dose response, counter-screen for streptokinase expression inhibitor project, luminescence, BacTiterGlo (AID 1915); assay type: functional, organism-based;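 further: potency for reduction of bacterial viability or growth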
[16] = cytotoxicity toward NIH3T3 fibroblasts, dose response, counter-screen, cell-based, ATP luminescence, mouse fibroblasts (AID 2010); assay type: functional;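 further: cells exposed to compound for about 90 hours before reading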
[17] = tested on: Streptococcus sp. 'group A'; assay: growth inhibition of control SK(-) GAS strain, dose response, counter-screen for streptokinase expression inhibitor project, luminescence, kanamycin, BacTiterGlo, confirmation (AID 1900); assay type: functional, organism-based
[18] = target: T5, Heat shock factor protein 1 (Mus musculus, UniProt P38532); assay: inhibition of MG132-induced HSE-luciferase signal, confirmation, cell-based, NIH3T3, luminescence, dose retest (AID 2382); assay type: functional;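 further: NIH3T3 fibroblasts with HSF1-driven luciferase reporter stressed by proteasome inhibitor MG132; luminescence from HSF1-driven luciferase expression after 8 hours of MG132 stress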
T5 sequence (P38532 whole entry): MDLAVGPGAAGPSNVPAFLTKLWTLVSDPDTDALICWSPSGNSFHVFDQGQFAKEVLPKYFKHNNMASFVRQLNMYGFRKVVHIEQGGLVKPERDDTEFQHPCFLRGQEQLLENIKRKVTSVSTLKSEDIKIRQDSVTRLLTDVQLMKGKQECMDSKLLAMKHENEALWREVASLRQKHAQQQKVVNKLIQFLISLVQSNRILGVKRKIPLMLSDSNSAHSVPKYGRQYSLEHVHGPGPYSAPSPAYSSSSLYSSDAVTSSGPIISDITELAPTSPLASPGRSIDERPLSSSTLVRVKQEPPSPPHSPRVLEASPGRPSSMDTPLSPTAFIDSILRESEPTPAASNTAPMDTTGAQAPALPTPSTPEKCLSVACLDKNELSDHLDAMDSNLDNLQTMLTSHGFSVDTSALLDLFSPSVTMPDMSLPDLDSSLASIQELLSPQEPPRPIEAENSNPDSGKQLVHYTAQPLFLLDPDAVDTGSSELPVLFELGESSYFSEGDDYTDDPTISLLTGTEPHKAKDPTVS

Cc1c(N)nc([C@H](CC(N)=O)NC[C@H](N)C(N)=O)nc1C(=O)N[C@H](C(=O)N[C@H](C)[C@@H](O)[C@H](C)C(=O)N[C@H](C(=O)NCCc1nc(-c2nc(C(=O)NCCC[S+](C)C)cs2)cs1)[C@@H](C)O)C(OC1OC(CO)C(O)C(O)C1OC1OC(CO)C(O)C(OC(N)=O)C1O)c1c[nH]cn1 (stereo partly specified)
GI50 [1]: 2.11 µM (inactive)
GI50 [2]: 3.49 µM (inactive)
GI50 [3]: 0.19 µM (active)

CC1CC(C)(C)CC2(C1)NC(=O)N(CC(=O)N1CCN(Cc3ccc(C#N)cc3)CC1)C2=O (stereo unspecified)
AC50 [4]: 1.47 µM (active)
AC50 [5]: 2.54 µM (active)
AC50 [6]: 0.65 µM (active)

COc1ccc(-n2nnnc2CNC(=O)c2ccc3ccccc3c2)cc1
IC50 [7]: 14.5 µM (active)

Cc1cc(C)cc(NS(=O)(=O)c2cnc(Cl)c(Cl)c2)c1
IC50 [7]: 16.6 µM (active)

Cc1ccc(Cn2c(N/N=C/c3ccncc3)nc3c2c(=O)n(C)c(=O)n3C)cc1
AC50 [8]: 1.77 µM (active)

C[C@H](CN1CC(=O)NC(=O)C1)N1CC(=O)NC(=O)C1
GI50 [1]: 0.319 µM (active)
GI50 [2]: 13.9 µM (inactive)
GI50 [3]: 36.8 µM (inactive)

c1ccc(-c2nc3nonc3nc2-c2ccccc2)cc1
AC50 [9]: 1.15 µM (active)
CC50 [10]: 17.8 µM (active)

CCCCC(=O)NC(=S)NNC(=O)c1ccc(OC)cc1
IC50 [11]: > 20 µM (inactive)
EC50 [12]: 5.06 µM (active)

O=C1C2=C(C3=NCCc4c[nH]c1c43)C1(C=C(Br)C(O)C(Br)=C1)CCN2 (stereo unspecified)
GI50 [1]: 1.25 µM (inactive)
GI50 [2]: 1.81 µM (inactive)
GI50 [3]: 2.99 µM (inactive)

Cc1c(C(=O)c2ccc(N(C)C)cc2)c2ccccn2c1CCC#N
IC50 [13]: > 50 µM (not active)
AC50 [8]: 2.73 µM (active)

Cc1ccc(S(=O)(=O)Nc2c(C(=O)O)[nH]c3ccccc23)cc1C
AC50 [8]: 10.8 µM (active)

COc1ccc(C(NC(C)=O)c2cc(Cl)c3cccnc3c2O)cc1OC (stereo unspecified)
AC50 [9]: 2.3 µM (active)
AC50 [4]: 3.45 µM (active)
AC50 [5]: 3.12 µM (active)
EC50 [14]: 0.941 µM (active)
EC50 [15]: 3.67 µM (active)
AC50 [6]: 2.98 µM (active)
EC50 [16]: 1.01 µM (active)
EC50 [17]: 3.99 µM (active)

CNC(=O)SCC(NC(=O)CCC(N)C(=O)O)C(=O)NCC(=O)O (stereo unspecified)
GI50 [1]: 27.5 µM (inactive)
GI50 [2]: 26.4 µM (inactive)
GI50 [3]: > 59.2 µM (inactive)

CC(C)=CCc1c(C)cc2cc3c(c(O)c2c1O)C(=O)C=C(O)C3(CC=C(C)C)C/C=C(\C)CO (stereo unspecified)
GI50 [1]: 23.5 µM (inactive)
GI50 [2]: 20.1 µM (inactive)
GI50 [3]: 35.2 µM (inactive)

COc1cc(/C=C/C(=O)O)ccc1C(=O)O/C=C/c1ccccc1
GI50 [1]: 25.6 µM (inactive)
GI50 [2]: 14.1 µM (inactive)
GI50 [3]: > 100 µM (inactive)

Cc1ccccc1N(C)S(=O)(=O)c1ccc2ncc(C(=O)NCC3CCCO3)c(O)c2c1 (stereo unspecified)
IC50 [7]: 12 µM (active)

COc1ccc2c(c1)CCCc1cn[nH]c1-2
GI50 [1]: > 100 µM (inactive)
GI50 [2]: > 100 µM (inactive)
GI50 [3]: > 100 µM (inactive)

CN1CCCN(c2ncnc3scc(-c4ccc(F)cc4)c23)CC1
IC50 [7]: 12.9 µM (active)

CC(C)Sc1sc(C(=O)O)c(-c2ccc(Cl)cc2)c1C#N
IC50 [7]: 13.5 µM (active)

OCC1CCC(n2cnc3c(O)ncnc32)O1 (stereo unspecified)
GI50 [1]: > 100 µM (inactive)
GI50 [2]: > 100 µM (inactive)
GI50 [3]: > 100 µM (inactive)

COc1ccc(C2/C=C\CN(C(=O)c3ccccc3)[C@H](Cc3ccccc3)C(=O)N2Cc2ccc(F)cc2)cc1 (stereo partly specified)
AC50 [9]: 7.46 µM (active)

COC(=O)c1cccc(NC(=O)c2ccc(S(=O)(=O)N3CCN(C)CC3)cc2)c1
IC50 [7]: 14.5 µM (active)

C=CC[n+]1c(C)csc1Nc1cccc(Br)c1
AC50 [8]: 7.54 µM (active)

CC(NC(=O)c1ccccc1)C(=O)N/N=C/c1ccc(O)cc1 (stereo unspecified)
AC50 [8]: 2.14 µM (active)

Cc1ccc(S(=O)(=O)NNC(=O)c2ccc3ccccc3n2)cc1
AC50 [8]: 7 µM (active)

Cc1nn(Cc2ccccc2Cl)c(C)c1NC(=O)c1noc2c1CCCCC2
IC50 [7]: 13.8 µM (active)

CNC(SCc1cc2c(cc1Cl)OCO2)=C1C(=O)N(C)C(=O)N(C)C1=O
AC50 [8]: 1.56 µM (active)
EC50 [18]: > 195 µM (not active)

CCn1c(N2CCN(S(=O)(=O)c3ccc(Cl)cc3)CC2)nc2ccccc21
AC50 [4]: 9.14 µM (active)
AC50 [5]: 58.3 µM (active)
EC50 [14]: 1.55 µM (active)
AC50 [6]: 9.17 µM (active)
EC50 [16]: > 60 µM (not active)
